This is an account of results in patent publication US20120149710A1, “SORTASE A INHIBITORS” (priority 2009, published 2012).

In assay [1] the target is B. anthracis sortase A enzyme (Bacillus anthracis, UniProt P0DPQ5). Description: cell-based. The note with it: for EC50 (estimated from a single concentration): read-out: EC50 estimated from a single concentration.
The next assay addresses SrtA (Staphylococcus aureus, UniProt Q2FV99). It counts as biochemical. As to conditions: inhibitor 10-fold above IC50, then rapid dilution.
The next assay has as its system S. aureus strain Newman. Description: MIC by microtiter broth dilution method. It counts as cell-based. As to conditions: Staphylococcus aureus, read-out: MIC preventing S. aureus growth.
In a further assay the test system is S. aureus. The experiment in a line: S. aureus culture growth in the presence of 500 μM inhibitor. It counts as cell-based, Staphylococcus aureus. As to conditions: vs 2.5% DMSO control.
The target of another assay is S. aureus SrtA (Staphylococcus aureus, UniProt Q2FV99). The experiment in a line: FRET assay of SrtA-catalyzed hydrolysis of Abz-LPETG-Dap(Dnp); IC50 / Ki app. The note with it: for IC50: purified enzyme, FRET, read-out: IC50 for inhibition of S. aureus SrtA; for Ki: read-out: Ki app (apparent dissociation constant of enzyme-inhibitor complex, Morrison's equation), S. aureus SrtA. It counts as biochemical.

Assay [2] addresses Bacillus anthracis sortase enzyme (BaSrtA) (Bacillus anthracis, UniProt P0DPQ5). The experiment in a line: biochemical.
Assay [3] has as its system SrtA activity in whole cells, S. aureus strain RN4220. Description: Cell adhesion assay: whole cell adhesion to IgG coated plates (SrtA activity in whole cells). It counts as cell-based, Staphylococcus aureus. As to conditions: IgG coated microtiter plates.

≈ marks a conversion by molar mass, not a printed value. Entries after “also recorded” stand apart in the source; their conditions may differ.

S. aureus SrtA, sequence (Q2FV99 60-206): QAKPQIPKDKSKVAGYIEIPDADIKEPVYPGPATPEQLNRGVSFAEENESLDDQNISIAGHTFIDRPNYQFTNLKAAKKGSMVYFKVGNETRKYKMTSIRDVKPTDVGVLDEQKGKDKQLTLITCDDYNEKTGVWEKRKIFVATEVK
B. anthracis sortase A enzyme, sequence (P0DPQ5 whole entry, looked up): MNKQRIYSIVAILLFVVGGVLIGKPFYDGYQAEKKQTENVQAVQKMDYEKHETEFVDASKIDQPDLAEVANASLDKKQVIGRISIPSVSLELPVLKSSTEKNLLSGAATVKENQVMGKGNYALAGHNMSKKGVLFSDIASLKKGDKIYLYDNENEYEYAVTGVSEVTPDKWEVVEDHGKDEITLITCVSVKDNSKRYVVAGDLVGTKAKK
Bacillus anthracis sortase enzyme (BaSrtA), sequence (P0DPQ5 whole entry, looked up): as above
SrtA, sequence (Q2FV99 60-206): as the sequence (Q2FV99 60-206) above

As to `CCOc1c(SSc2ccccn2)cnn(-c2cccc(F)c2)c1=O` [2-59, 4-Ethoxy-2-(3-fluorophenyl)-5-(pyridin-2-yldisulfanyl)pyridazin-3(2H)-one], the EC50 (estimated from a single concentration) in assay [1] is over 8000 nM.

For the molecule `Cc1ccc(N2C(=O)/C(=C/c3cc([N+](=O)[O-])cc(Br)c3O)SC2=S)c(C)c1` [compound 1], the “Enzyme activity recovered immediately after dilution” value at SrtA is recorded as 84%. The MIC with S. aureus strain Newman was about 10 µM (≈ 4.65 µg/mL). Moreover, the “Effect on S. aureus growth in cell culture, in words” value (“Effect on S. aureus growth” for short) in the assay on S. aureus is “toxic”.

On to `CCSc1c(S)cnn(-c2ccccc2)c1=O` [compound 2-9], for which, at S. aureus SrtA, the “Inhibition of S. aureus SrtA, potency in words” value is recorded as “low micromolar”; the IC50 was found to be 1400 nM; the Ki amounted to 1400 nM. Besides, the Ki in assay [2] is about 300 nM. For the same molecule, the “Effect on S. aureus growth” value with S. aureus is reported as “do not significantly inhibit S. aureus growth; also recorded: not bactericidal; also recorded: do not impair microbial growth in cell culture”.

As to `CCOc1c(SSc2ccccn2)cnn(-c2ccccc2)c1=O` [compound 2-50, 4-Ethoxy-5-(2-pyridyldithio)-2-phenylpyridazin-3-one], the Ki on S. aureus SrtA was about 30 nM. For the same molecule, in assay [1], the “Concentration giving near complete inhibition of sortase activity” value is on record as “about 34 μM”, the EC50 was about 15000 nM and the EC50 (estimated from a single concentration) was over 8000 nM.

As for `CC1=NN(c2ccccc2)C(=S)/C1=C/Nc1c(Br)cc(Br)cc1Br` [compound 3-12], on S. aureus SrtA (4-NO2 changed to 2,4,6-Br3), the “Improvement of potency relative to lead 3” value is listed as “about 15 fold”. Also, at S. aureus SrtA, the concentration for half-maximal inhibition (IC50) was determined as 300 nM and the Ki came out at 300 nM. The molecule further registered a Ki in assay [2] of 1700 nM. Further, the “Effect on S. aureus growth” value with S. aureus is given as “do not substantially affect bacterial growth; also recorded: do not impair microbial growth in cell culture”. Also, in assay [1], the EC50 (estimated from a single concentration) was over 28000 nM.

For the molecule `Cc1oc(CN)nc1C(=O)c1nccs1` [compound 4], the IC50 at S. aureus SrtA worked out at 7200 nM. In addition, in assay [3], the “Effect on SrtA-dependent adherence / protein display in whole cells” value is “potent effects; also recorded: inhibits protein display by SrtA in vivo”.
